Reference: ChEMBL document CHEMBL1144342, “Synthesis and structure-activity relationship of 4-substituted 2-(2-acetyloxyethyl)-8-(morpholine-4-sulfonyl)pyrrolo[3,4-c]quinoline-1,3-diones as potent caspase-3 inhibitors” (J Med Chem, 2005)

What follows are molecules tested against T1, Caspase-3 (Homo sapiens, UniProt P42574) (assay: In vitro inhibitory concentration against human caspase-3).
T1 sequence (P42574 whole entry): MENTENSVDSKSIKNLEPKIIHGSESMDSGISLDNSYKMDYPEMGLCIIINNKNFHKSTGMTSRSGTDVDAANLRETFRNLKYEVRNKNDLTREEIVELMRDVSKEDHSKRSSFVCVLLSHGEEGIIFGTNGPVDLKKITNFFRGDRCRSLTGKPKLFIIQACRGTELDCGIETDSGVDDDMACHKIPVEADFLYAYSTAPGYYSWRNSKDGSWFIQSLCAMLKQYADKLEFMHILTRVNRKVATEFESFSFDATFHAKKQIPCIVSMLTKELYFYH

IC50 [nM]	Compound
23	CC(=O)OCCN1C(=O)c2c(C)nc3ccc(S(=O)(=O)N4CCOCC4)cc3c2C1=O
294	CC(=O)OCCN1C(=O)c2c(Cl)nc3ccc(S(=O)(=O)N4CCOCC4)cc3c2C1=O
27	CC(=O)OCCN1C(=O)c2c(-c3ccccc3)nc3ccc(S(=O)(=O)N4CCOCC4)cc3c2C1=O
255	CC(=O)OCCN1C(=O)c2c(SC(=N)N)nc3ccc(S(=O)(=O)N4CCOCC4)cc3c2C1=O
58	CC(=O)OCCN1C(=O)c2c(-c3ccc(C(=O)N(C)C)cc3)nc3ccc(S(=O)(=O)N4CCOCC4)cc3c2C1=O
352	COC(=O)C[S+]([O-])c1nc2ccc(S(=O)(=O)N3CCOCC3)cc2c2c1C(=O)N(CCOC(C)=O)C2=O (configuration not stated)
1290	COC(=O)CSc1nc2ccc(S(=O)(=O)N3CCOCC3)cc2c2c1C(=O)N(CCOC(C)=O)C2=O
5190	CCOC(=O)C[C@@H](Nc1nc2ccc(S(=O)(=O)N3CCOCC3)cc2c2c1C(=O)N(CCOC(C)=O)C2=O)C(=O)OCC
362	COC(=O)CS(=O)(=O)c1nc2ccc(S(=O)(=O)N3CCOCC3)cc2c2c1C(=O)N(CCOC(C)=O)C2=O
36	CC(=O)OCCN1C(=O)c2c(-c3ccco3)nc3ccc(S(=O)(=O)N4CCOCC4)cc3c2C1=O
33	CC(=O)OCCN1C(=O)c2c(/C=C/c3ccc(C(F)(F)F)cc3)nc3ccc(S(=O)(=O)N4CCOCC4)cc3c2C1=O
15400	CC(=O)OCCN1C(=O)c2c(N3CCOCC3)nc3ccc(S(=O)(=O)N4CCOCC4)cc3c2C1=O
10900	CC(=O)OCCN1C(=O)c2c(c3cc(S(=O)(=O)N4CCOCC4)ccc3[nH]c2=O)C1=O
27900	CC(=O)OCCN1C(=O)c2c(Nc3ccc(F)c(Cl)c3)nc3ccc(S(=O)(=O)N4CCOCC4)cc3c2C1=O
33	CC(=O)OCCN1C(=O)c2c(-c3cccnc3)nc3ccc(S(=O)(=O)N4CCOCC4)cc3c2C1=O
33	CC(=O)OCCN1C(=O)c2c(-c3ccc(F)c(Cl)c3)nc3ccc(S(=O)(=O)N4CCOCC4)cc3c2C1=O
40	CC(=O)OCCN1C(=O)c2c(C(C)C)nc3ccc(S(=O)(=O)N4CCOCC4)cc3c2C1=O
